Assay results published in US20260027125A1, “AN ANTIBACTERIAL PARENTERAL FORMULATION AND METHODS THEREOF” (BUGWORKS RESEARCH INDIA PVT. LTD., priority 2022, published 2026).
Where a name gives a salt, the structure may show the parent alone.

Tests used:
Acinetobacter baumannii = assay: microbe, parasite or virus in culture; assay type: cell-based
Citrobacter freundii = assay: microbe, parasite or virus in culture; assay type: cell-based
[1] = test system: Proteus mirabilis, vulgaris; assay: microbe, parasite or virus in culture; assay type: cell-based
[2] = test system: Stenotrophomonas maltophilia; assay: microbe, parasite or virus in culture; assay type: cell-based
Morganella morgannii = assay: microbe, parasite or virus in culture; assay type: cell-based
[3] = test system: Klebsiella oxytoca, aerogenes; assay: microbe, parasite or virus in culture; assay type: cell-based
Achromobacter spp. = assay: microbe, parasite or virus in culture; assay type: cell-based
Hemophilus influenzae = assay: microbe, parasite or virus in culture; assay type: cell-based
Moraxella catarrhalis = assay: microbe, parasite or virus in culture; assay type: cell-based
[4] = test system: Prevotella sp. (anaerobe); assay: microbe, parasite or virus in culture; assay type: cell-based
[5] = test system: Mycoplasma species (atypical); assay: microbe, parasite or virus in culture; assay type: cell-based
[6] = test system: Ureaplasma species (atypical); assay: microbe, parasite or virus in culture; assay type: cell-based
[7] = test system: Clostridium difficile (anaerobe); assay: microbe, parasite or virus in culture; assay type: cell-based
[8] = test system: Burkholderia pseudomallei; assay: microbe, parasite or virus in culture; assay type: cell-based
[9] = pH solution stability study; assay type: physicochemical
Experimental: The weighed quantity of compound of Formula (I) formate salt was added to each buffers system and dissolved. Volume make up was performed with WFI. The 5 mL of sample was filled in 5 mL USP Type I Vials. Vials were stopped and sealed. These vials were kept at 25° C. for stability study. The blank buffers/placebo samples were also placed along with active samples.

[10] = Solubility enhancement trials; assay type: physicochemical
Experimental: All observations were recorded once the solution temperature reached to 25° C.-30° C.

SMILES: Cn1c(=O)ccc2ccc(F)c(CCNC[C@H]3CN(c4cnc5c(n4)NC(=O)CO5)C(=O)O3)c21 [compound of Formula (I) formate salt, (S)-6-(5-(((2-(7-fluoro-1-methyl-2-oxo-1,2-dihydroquinolin-8-yl)ethyl)amino)methyl)-2-oxooxazolidin-3-yl)-2H-pyrazino[2,3-b][1,4]oxazin-3(4H)-one formate]
- MIC Range, high end (Acinetobacter baumannii): 4 mg/L
- MIC Range, low end (Acinetobacter baumannii): 0.03 mg/L
- MIC50 (Acinetobacter baumannii; Acinetobacter baumannii): 0.25 mg/L
- MIC90 (Acinetobacter baumannii; Acinetobacter baumannii): 0.5 mg/L
- MIC Range, high end (Citrobacter freundii): 8 mg/L
- MIC Range, low end (Citrobacter freundii): 0.03 mg/L
- MIC50 (Citrobacter freundii; Citrobacter freundii): 0.25 mg/L
- MIC90 (Citrobacter freundii; Citrobacter freundii): 1 mg/L
- MIC Range, high end [1]: 2 mg/L
- MIC Range, low end [1]: 0.03 mg/L
- MIC50 ([1]; Proteus mirabilis): 0.12 mg/L
- MIC90 ([1]; Proteus mirabilis): 0.5 mg/L
- MIC Range, high end [2]: 2 mg/L
- MIC Range, low end [2]: 0.03 mg/L
- MIC50 ([2]; Stenotrophomonas maltophilia): 0.06 mg/L
- MIC90 ([2]; Stenotrophomonas maltophilia): 0.25 mg/L
- MIC Range, high end (Morganella morgannii): 8 mg/L
- MIC Range, low end (Morganella morgannii): ≤0.015 mg/L
- MIC50 (Morganella morgannii; Morganella): 0.12 mg/L
- MIC90 (Morganella morgannii; Morganella): 0.5 mg/L
- MIC Range, high end [3]: 4 mg/L
- MIC Range, low end [3]: 0.06 mg/L
- MIC50 ([3]; Klebsiella oxytoca): 0.25 mg/L
- MIC90 ([3]; Klebsiella oxytoca): 0.5 mg/L
- MIC Range, high end (Achromobacter spp.): 0.5 mg/L
- MIC Range, low end (Achromobacter spp.): ≤0.015 mg/L
- MIC50 (Achromobacter spp.; Achromobacter): 0.06 mg/L
- MIC90 (Achromobacter spp.; Achromobacter): 0.12 mg/L
- MIC Range, high end (Hemophilus influenzae): ≤0.015 mg/L
- MIC Range, low end (Hemophilus influenzae): ≤0.015 mg/L
- MIC50 (Hemophilus influenzae; Haemophilus influenzae): ≤ 0.015 mg/L
- MIC90 (Hemophilus influenzae; Haemophilus influenzae): ≤ 0.015 mg/L
- MIC Range, high end (Moraxella catarrhalis): ≤0.015 mg/L
- MIC Range, low end (Moraxella catarrhalis): ≤0.015 mg/L
- MIC50 (Moraxella catarrhalis; Moraxella catarrhalis): ≤ 0.015 mg/L
- MIC90 (Moraxella catarrhalis; Moraxella catarrhalis): ≤ 0.015 mg/L
- MIC Range, high end [4]: 1 mg/L
- MIC Range, low end [4]: ≤0.015 mg/L
- MIC50 ([4]; Prevotella): ≤ 0.015 mg/L
- MIC90 ([4]; Prevotella): ≤ 0.015 mg/L
- MIC Range, high end [5]: ≤0.015 mg/L
- MIC Range, low end [5]: ≤0.015 mg/L
- MIC50 ([5]; Mycoplasma leachii): ≤ 0.015 mg/L
- MIC90 ([5]; Mycoplasma leachii): ≤ 0.015 mg/L
- MIC Range, high end [6]: 0.03 mg/L
- MIC Range, low end [6]: ≤0.015 mg/L
- MIC50 ([6]; Ureaplasma): ≤ 0.015 mg/L
- MIC90 ([6]; Ureaplasma): ≤ 0.015 mg/L
- MIC Range, high end [7]: 0.06 mg/L
- MIC Range, low end [7]: <0.015 mg/L
- MIC50 ([7]; Clostridioides difficile): < 0.015 mg/L
- MIC90 ([7]; Clostridioides difficile): 0.03 mg/L
- MIC50 [8]: 0.25 mg/L
- MIC90 [8]: 0.5 mg/L
- MIC Range, high end ([8]; N 40 strains): 4 mg/L
- MIC Range, low end ([8]; N 40 strains): ≤0.015 mg/L
- stability ([9]; acid pH (<5)): very stable
- stability ([9]; liquid state (Solution/Suspension)): highly unstable
- stability ([9]; neutral to alkaline pH range (pH 5.0 to 10.0)): unstable
- solution stability upto ([9]; pH 3.0-pH 5.0): ≤ 24 h
- pH ([10]; Sr. No. 2: 7.5% Citric acid solution): 1.96
- pH ([10]; Sr. No. 6: 7.5% Citric acid + 20% HPβ-CD): 1.94
- pH ([10]; Sr. No. 9: 10% Ascorbic acid + 1% PVP K-12 + 20% HPβ-CD): 2.9
- pH ([10]; Sr. No. 10: 5% Ascorbic acid + 2% PVP K-12 + 20% HPβ-CD): 3.19
- pH ([10]; Sr. No. 11: 7.5% Ascorbic acid + 2% PVP K-12 + 20% HPβ-CD): 3.08
- pH ([10]; Sr. No. 12: 7.5% Ascorbic acid + 1% PVP K-12 + 20% HPβ-CD): 3.07
- pH ([10]; Sr. No. 13: 5% Ascorbic acid + […] Lactic acid + 1% PVP K-12 + 20% HPβ-CD): 2.88
- pH ([10]; Sr. No. 14: 5% Ascorbic acid + 1% PVP K-12 + 30% HPβ-CD): 3.25
- pH ([10]; Sr. No. 15: 7.5% Ascorbic acid + 1% PVP K-12 + 30% HPβ-CD): 3.15
- pH ([10]; Sr. No. 17: 10% Ascorbic acid + 1% PVP K-12 + 30% HPβ-CD): 3.03
- pH ([10]; Sr. No. 18: 7% Ascorbic acid + […] Acetic acid + 1% PVP K-12 + 30% HPβ-CD): 3.06
- pH ([10]; Sr. No. 19: 7% Ascorbic acid + 0.9% Glycine + 30% HPβ-CD): 3.25
- pH ([10]; Sr. No. 20: 7% Ascorbic acid + […] Acetic acid + 0.9% Glycine + 30% HPβ-CD): 3.16
- pH ([10]; Sr. No. 21: 7% Ascorbic acid + […] lactic acid + 1% PVP K-12 + 30% HPβ-CD): 2.91
- pH ([10]; Sr. No. 22: 6% Ascorbic acid + […] Acetic acid + […] lactic acid + 1% PVP K-12 + 30% HPβ-CD): 2.84
- pH ([10]; Sr. No. 23: Acetate Buffer (200 mM, pH 3.0) + 6% Ascorbic acid + […] lactic acid + 1% PVP K-12 + 30% HPβ-CD): 2.78
- pH ([10]; Sr. No. 24: 5% Ascorbic acid + […] Acetic acid + […] lactic acid + 1% PVP K-12 + 30% HPβ-CD, pH adjusted by L-Arginine Solution): 3.73
- MIC Range, high end (Helicobacter pylori): 0.5 mg/L
- MIC Range, low end (Helicobacter pylori): ≤0.015 mg/L
